This is an account of results in patent US9815777B2, “Metformin salts to treat Type2 diabetes” (Jiva Pharma, Inc., priority 2013, dated 2017).

Entries after “also recorded” stand apart in the source; their conditions may differ. Structures can show the parent of a compound that is named as a salt.

In test [1] the test system is Female db/db B6BKS (D) Leprdb/J mice. Nature of the test: Oral glucose tolerance test (GTT) on day 26 in db/db mice. It counts as in vivo, mouse. From the text:
(§1) The anti-diabetic activity of Met.TZ was examined in a standard mouse model of diabetes, in comparison to the front-line anti-diabetes drug metformin hydrochloride. Female db/db B6BKS (D) Leprdb/J mice of approximately 6.5 to 9.5 weeks old were used for this study. This is a standard genetic model of obesity related insulin resistance and diabetes, and has served as model animal for the development and analysis of many metabolically active drugs.
(§2) Two treatment groups of six female mice were administered Met.TZ (MetX), at dose levels of 44.7 mg/kg/dose or 149 mg/kg/dose. Two treatment groups of six female mice were administered the test sample TZ (X), at dose levels of 21.2 mg/kg/dose or 70.8 mg/kg/dose Two treatment groups of six female mice were administered the positive control article, metformin hydrochloride, at dose levels of 30 mg/kg/dose or 100 mg/kg/dose. One additional group of six mice served as the control and received the test article vehicle, water. All drugs and vehicle solutions were administered daily during the study via oral gavage at a dose volume of 5 mL/kg. Body weights were measured three times per week, at the time of glucose measurements.
(§3) Blood samples for glucose analysis were collected three times per week beginning on Day 1 through Day 26. Animals were fasted for 6 hours prior to glucose testing. On Days 1 through 12, the test article, positive control, and vehicle were administered after completion of the glucose testing. On Days 15 through 24 the dosing occurred approximately 90 minutes prior to glucose testing. On Day 26, a glucose tolerance test (GTT) was performed. The animals were administered a glucose solution at a dose level of 2 g/kg and a dose volume of 5 mL/kg. Blood collection for glucose measurements were collected predose, and at 0.5, 1, 1.5, 2, and 3 hours following administration of the glucose solution.

Test [2] has the same test system. Nature of the test: Fasting blood glucose in db/db mouse model of diabetes, daily oral gavage. Type of test: in vivo. The settings on record: for Fasting Blood Glucose (% changes from vehicle control): 6 h fast; for Blood glucose lowering compared with the equivalent dose of metformin (in words): difference not statistically significant.
Text: as §1, §2, §3

For `CN(C)C(=N)NC(=N)N.O=C1CSC(=O)N1` [Met.TZ, Metformin thiazolidine-2,4-dione-3-ide], the “GTT glucose curve versus control animals (Veh), significance” value in test [1] (P<0.05 by ANOVA, means of 6 animals) was “significantly different than that from control animals”. Moreover, the “Glucose levels post glucose administration compared with the equivalent dose of metformin (in words)” value in test [1] (every time point, 149 mg/kg/day vs metformin 100 mg/kg/day, difference not statistically significant) is listed as “lower glucose levels than animals treated with the equivalent dose of metformin”. Also, in test [1] (glucose 2 g/kg, 149 mg/kg/day), the “Glucose tolerance (in words)” value was “striking improvement in glucose tolerance”. The “Glucose lowering activity (in words)” value in test [2] (149 mg/kg (equivalent to metformin 100 mg/kg), from day 17 until termination of the study) is “striking glucose lowering activity”. Moreover, the “Fasting Blood Glucose (% changes from vehicle control)” value in test [2] (day 15 of treatment, 149 mg/kg/day oral gavage) is −13%; in test [2] (day 17 of treatment, 149 mg/kg/day oral gavage), −51%; in test [2] (day 19 of treatment, 149 mg/kg/day oral gavage) it was −33%; in test [2] (day 22 of treatment, 149 mg/kg/day oral gavage), −52%. The “Blood glucose lowering compared with the equivalent dose of metformin (in words)” value in test [2] (db/db mice) was “more effective at lowering blood glucose than the equivalent dose of metformin; also recorded: lower glucose more than the equivalent dose of metformin hydrochloride alone”; in test [2] (db/db mice, listed as 2,4-thiazolidinedione with metformin as its salt (1:1)), “enhanced the glucose lowering effect of metformin”.
For `O=C1CSC(=O)N1` [TZ, 2,4-thiazolidinedione], the “Fasting Blood Glucose (% changes from vehicle control)” value in test [2] (day 15 of treatment, 70.8 mg/kg/day oral gavage) was “+34%”; in test [2] (day 17 of treatment, 70.8 mg/kg/day oral gavage), −22%; in test [2] (day 19 of treatment, 70.8 mg/kg/day oral gavage) it was “+9%”; in test [2] (day 22 of treatment, 70.8 mg/kg/day oral gavage), −19%. The “Hypoglycemic activity without any metformin (in words)” value in test [2] (db/db mice, same model) is listed as “little effect on glucose lowering”.
Regarding `CN(C)C(=N)N=C(N)N` [Metformin, metformin hydrochloride], the “Fasting Blood Glucose (% changes from vehicle control)” value is −9% in test [2] (day 15 of treatment, 100 mg/kg/day oral gavage); −34% in test [2] (day 17 of treatment, 100 mg/kg/day oral gavage); −7% in test [2] (day 19 of treatment, 100 mg/kg/day oral gavage); −43% in test [2] (day 22 of treatment, 100 mg/kg/day oral gavage).
